From paper PMC5081515 (Scientific Reports, 2016)
Like-named read-outs stand apart in the source and are kept apart here.

Tests used:
Human HGPRT [1] = molecular target: Human HGPRT; design: method as in Cesnek et al. 19; Keough et al. 18; settings: ref Cesnek et al. 19, Keough et al. 18; cited from earlier work
TbrHGPRT [2] = molecular target: T1, TbrHGPRT (Trypanosoma brucei brucei, UniProt Q07010); assay: Inhibition studies, Ki determination
Human HGPRT [3] = system: Human HGPRT; design: method as in de Jersey et al. 10; settings: cited from earlier work
TcrHGPRT = system: TcrHGPRT; design: method as in Canyuk et al. 43; Allen & Ullman 54; settings: cited from earlier work
TbrHGPRT [4] = molecular target: T1, TbrHGPRT; assay: Kinetic constants of naturally occurring substrates, continuous spectrophotometric assay; format: biochemical; design: made in house; host or cells: E. coli BL-21 (DE3), pET-22b
Experimental: One unit of activity is defined as the number of μmol of purine base converted to its mononucleotide product per minute.
The kinetic constants were calculated using GraphPad Prism 6.0.

TbrHGPRT [5] = molecular target: T1, TbrHGPRT; assay: Standard enzyme activity assay with ammonium sulphate added; format: biochemical; design: made in house; host or cells: E. coli BL-21 (DE3), pET-22b; settings: 2M ammonium sulphate added to the cuvette
[6] = ref de Jersey et al. 10, read-out: Km
[7] = ref Canyuk et al. 43, Allen & Ullman 54, read-out: Km
[8] = ref Canyuk et al. 43, Allen & Ullman 54

T1 sequence (Q07010 whole entry): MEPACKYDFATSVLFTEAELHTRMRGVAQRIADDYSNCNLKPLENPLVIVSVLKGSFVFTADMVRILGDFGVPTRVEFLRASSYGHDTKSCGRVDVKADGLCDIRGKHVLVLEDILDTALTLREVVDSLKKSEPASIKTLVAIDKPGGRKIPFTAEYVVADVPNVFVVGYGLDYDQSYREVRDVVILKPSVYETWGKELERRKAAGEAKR

Nc1nc2c(ncn2CCCCP(=O)(O)O)c(=O)[nH]1 [Compound 1]
Ki (Human HGPRT [1]): 21 µM | Ki (TbrHGPRT [2]): 23.7 ± 0.3 µM

Nc1nc2c(ncn2CCCCCP(=O)(O)O)c(=O)[nH]1 [Compound 2]
Ki (Human HGPRT [1]): 0.5 µM | Ki (TbrHGPRT [2]): 2.3 ± 0.1 µM

Nc1nc2c(ncn2CCCCCCP(=O)(O)O)c(=O)[nH]1 [Compound 3]
Ki (Human HGPRT [1]): 0.5 µM | Ki (TbrHGPRT [2]): 21.3 ± 0.4 µM

O=c1[nH]cnc2c1ncn2CCCP(=O)(O)O [Compound 4]
Ki (Human HGPRT [1]): > 100 µM | Ki (TbrHGPRT [2]): > 100 µM

O=c1[nH]cnc2c1ncn2CCCCP(=O)(O)O [Compound 5]
Ki (Human HGPRT [1]): > 100 µM | Ki (TbrHGPRT [2]): 58.6 ± 4 µM

O=c1[nH]cnc2c1ncn2CCCCCP(=O)(O)O [Compound 6]
Ki (Human HGPRT [1]): > 100 µM | Ki (TbrHGPRT [2]): 15.8 ± 1.8 µM

O=c1[nH]cnc2c1ncn2CCCCCCP(=O)(O)O [Compound 7]
Ki (Human HGPRT [1]): 77 µM | Ki (TbrHGPRT [2]): > 100 µM

Nc1nc2c(ncn2[C@@H]2O[C@H](COP(=O)(O)O)[C@@H](O)[C@H]2O)c(=O)[nH]1 [GMP, reference compound]
Ki (Human HGPRT [1]): 5.8 ± 0.2 µM | Ki (TbrHGPRT [2]; 0.03 M phosphate, […] MgCl2, 1 mM DTT, pH 7.4, 25 °C, guanine 40 μM, PRib-PP varied 20 to 630 μM): 30.5 ± 1.5 µM | Ki for GMP, fold lower than for IMP (TbrHGPRT [2]; TbrHGPRT): 2.5 fold | Ki for TbrHGPRT, fold higher than for human HGPRT (TbrHGPRT [2]; TbrHGPRT vs human HGPRT): 5 fold

Nc1nc2nc[nH]c2c(=O)[nH]1 [Guanine]
Km (Human HGPRT [3]; [6]): 1.9 ± 0.4 µM | kcat (Human HGPRT [3]; ref de Jersey et al. 10): 8.2 ± 0.6 s⁻¹ | Km (TcrHGPRT; [7]): 9.9 ± 0.29 µM | kcat (TcrHGPRT; [8]): 41.2 ± 2.9 s⁻¹

O=c1[nH]cnc2nc[nH]c12 [Hypoxanthine]
Km, fold higher than for guanine (TbrHGPRT [4]; TbrHGPRT): 2 fold | Km (Human HGPRT [3]; [6]): 3.4 ± 1 µM | kcat (Human HGPRT [3]; ref de Jersey et al. 10): 5.2 ± 0.4 s⁻¹ | Km (TcrHGPRT; [7]): 8.6 ± 1 µM | kcat (TcrHGPRT; [8]): 23 s⁻¹

O=P(O)(O)OC[C@H]1O[C@H](OP(=O)(O)OP(=O)(O)O)[C@H](O)[C@@H]1O [PRib-PP]
Km (Human HGPRT [3]; [6]): 59.6 ± 6 µM | Km (TcrHGPRT; [7]): 32.4 ± 3.1 µM

O=c1[nH]c(=O)c2nc[nH]c2[nH]1 [Xanthine]
kcat (TbrHGPRT [4]; 0.03 M phosphate buffer, […] MgCl2, 1 mM DTT, pH 7.4, 25 °C): Weak activity | Km (TbrHGPRT [4]; 0.03 M phosphate buffer, […] MgCl2, 1 mM DTT, pH 7.4, 25 °C, bases at 500 μM PRib-PP, PRib-PP at 40 μM guanine): Weak activity | activity as a substrate (TbrHGPRT [4]; TbrHGPRT): only very weak activity | Km (Human HGPRT [3]; ref de Jersey et al. 10): Not a substrate | kcat (Human HGPRT [3]; ref de Jersey et al. 10): Not a substrate | Km (TcrHGPRT; [8]): No activity reported | kcat (TcrHGPRT; [8]): No activity reported

N.N.O=S(=O)(O)O [sulphate, ammonium sulphate]
inhibition (TbrHGPRT [5]): 25%
